# From patent US20210052882A1, “ENHANCED TREATMENT VOLUME AND SELECTIVE ABLATION USING ELECTROPORATION WITH ADJUVANT CALCIUM” (Virginia Tech Intellectual Properties, Inc., priority 2019, published 2021)
# Values joined by “and” are separate entries in the source; they are usually repeats but may differ in a detail not shown here. Equal values may be shown once.
# Legend:
# cells [1] = test: Toxicity of calcium chloride to cells at the concentrations used; assay type: cell-based
# [2] = 450 V, 1 Hz, 100 μs; 80 pulses for IRE, 8 pulses for ECT; cited from earlier work
# cells [3] = details: nsPEFs; cited from earlier work
# [4] = test system: U251 malignant glioma cells; test: Electric field threshold for cell death, ablation area mapped to finite element model
# Method: For analysis, images were separated into two channels (green—Calcein AM, red—PI) and ablation areas for the green channel were analyzed for irreversible thresholds and red channels for reversible electroporation thresholds using a custom algorithm written in MATLAB. In cases where the algorithm was unable to accurately measure ablations, coordinate points from the algorithm outlining the ablation area were used as a guide to manually trace and measure the area in ImageJ. Ablation area measurements were mapped to a finite element model of the experimental setup to determine the corresponding electric field threshold.
# Treatments were simulated using the finite element method (COMSOL Multiphysics, Burlington, Mass.) and the electric field and temperature distributions were determined. The mesh was refined until there was <1% change in the electric field and temperature values along a cutline between the electrodes. The mesh consisted of 102,615 total elements. […] From the finite element model of the collagen scaffold, a relationship between lesion area and electric field magnitude is determined by performing numerical integration on the surface of the scaffold for a range of electric field magnitudes (100-3000 V/cm). A curve was constructed and fit to the data using least squares fitting in MATLAB. […] This equation was used to accurately back out the electric field thresholds for each treatment condition without needing to manually determine them using COMSOL.
# From the finite element model, it is possible to determine the electric field threshold required for cell death.
# Using the finite element model of H-FIRE treatment in the scaffold, the corresponding electric field thresholds for each ablation area were characterized.
# [5] = Properties of solutions (conductivity, osmolarity); assay type: physicochemical; details: base 250 mM sucrose, 1 mM MgCl2, 10 mM HEPES, pH 7.2-7.4
# Method: All solutions consisted of the same base ingredients: 250 mM sucrose, 1 mM MgCl2, and 10 mM HEPES buffer in deionized water with a pH in the range of 7.2-7.4. […] Cell culture media contains things such as serum and antibiotics that may affect results. Finally, fresh solutions were added immediately prior to pulsing. All solutions were adjusted to have a pH between 7.2-7.4.
# [6] = test system: U251 malignant glioma cells; test: H-FIRE ablation (lesion) area in collagen scaffolds, live/dead stain 24 hr after treatment; assay type: cell-based; details: for increase of ablation area compared to NaCl control: 1 mM; for increase of ablation area compared to NaCl control / increase in ablation area compared to NaCl control: H-FIRE 800 V, 80 bursts
# Method: U251 malignant glioma cells (Sigma Aldrich, 09063001) were maintained at 5% CO2 and 37° C. in Eagle's Minimum Essential Medium (Sigma Aldrich) supplemented with 1% penicillin/streptomycin (Life Technologies), 10% fetal bovine serum (Atlanta Biologicals), 1% non-essential amino acids (Sigma Aldrich) and 1 mM sodium pyruvate (Sigma Aldrich). Cells were routinely passaged at 80-90% confluence. […] PDMS wells were treated with 1% PEI (Acros Organics) for 10 min, 0.1% glutaraldehyde (Fisher Scientific) for 20 min, and then washed twice with deionized water prior to collagen seeding to ensure collagen adhesion during treatment. Commercial rat tail collagen type I (BD Biosciences) was neutralized using a solution of 10× Dulbecco's Modified Eagle Medium (10% total volume, Sigma Aldrich), 1 N NaOH (2% collagen volume, Sigma Aldrich), and 1× Dulbecco's Modified Eagle Medium (Sigma Aldrich) to a final concentration of 5 mg/mL. […] The collagen/cell solution was dispensed into PDMS wells and PDMS tops were used to mold the collagen flat while they polymerized in a cell culture incubator for 20 min. PDMS tops were then removed and cell culture media was added. Collagen scaffolds were maintained in the incubator for 24 hr prior to treatment. […] All solutions consisted of the same base ingredients: 250 mM sucrose, 1 mM MgCl2, and 10 mM HEPES buffer in deionized water with a pH in the range of 7.2-7.4. […] Cell culture media contains things such as serum and antibiotics that may affect results. Finally, fresh solutions were added immediately prior to pulsing. All solutions were adjusted to have a pH between 7.2-7.4. The osmolarity and conductivity of the buffers used are shown in Table 1: In this example, two hollow, stainless-steel needle electrodes (Howard electronics) were inserted into the scaffolds using a custom designed electrode housing. […] H-FIRE pulses were delivered using a high-voltage pulse generator (EPULSUS®-FBM1-5, EnergyPulse Systems, Lda). Voltage waveforms were captured using a high voltage probe and oscilloscope (DPO 2012, Tektronix). […] The pulses delivered were bipolar pulses having a positive pulse duration, inter-pulse delay, and negative pulse duration (see, e.g., FIG. 1B). Inter-pulse delay was kept constant (1 μs) while pulse width was varied (1, 2, 5, 10 μs). […] For reversible threshold experiments, scaffolds were imaged immediately after treatment. To visualize ablations, a live/dead stain was performed to visualize live and dead regions of cells in the scaffold. […] Scaffolds were then washed 2× with PBS prior to imaging using an inverted microscope (DMI 6000B, Leica Microsystems) with a 5× objective. Lesion areas were quantified for each treatment using a MATLAB algorithm. Since 24 h post treatment is sufficient to allow any reversibly electroporated cells to recover (as pore resealing happens on the order of minutes), staining the cells immediately after treatment and 24 h later allows for quantification of both the reversible zone of electroporation and irreversible zones of ablation. […] Scaffolds were then washed twice with PBS prior to imaging using an inverted microscope (DMI 6000B, Leica Microsystems) with a 5× objective, filter cubes, and an EM-CCD camera (Hamamatsu C9100). The appropriate filters were used to image Calcein AM (Ex:460-500, DC: 505, EM: 570-640) and propidium iodide (EX:545/26, DC:565, EM:605/70). […] Scaffolds were then imaged immediately after treatment. […] Reversible electroporation experiments were repeated at least six times. Discrepancies in the number of replicates between conditions were due to bubbles or other defects that may have changed the electric field distribution or prohibited a reliable measurement of ablation area. These scaffolds were excluded from analysis. Two-way ANOVA was used to test for differences in cell death area due to the different applied solutions and pulse waveforms. Tukey post-hoc comparisons were used to examine differences among treatment groups. […]
smiles,measurement,setting,value
"[Ca+2].[Cl-].[Cl-] [CaCl2, calcium chloride]",toxicity to cells,cells [1],non-toxic
same,lesion area for IRE or ECT treatment when CaCl2 is added,[2],greatly increased
same,cell swelling and mode of cell death,cells [3],experienced necrosis
same,reduction of electric field threshold compared to NaCl control,"[4]; 1 mM, 1-1-1 waveform",1.24 ×
same,reduction of electric field threshold compared to NaCl control,"[4]; 1 mM, 2-1-2 waveform",1.48 ×
same,reduction of electric field threshold compared to NaCl control,"[4]; 1 mM, 2-2-2 waveform",1.5 ×
same,reduction of electric field threshold compared to NaCl control,"[4]; 1 mM, 5-1-5 waveform",2.05 ×
same,reduction of electric field threshold compared to NaCl control,"[4]; 1 mM, 5-5-5 waveform",2.1 ×
same,reduction of electric field threshold compared to NaCl control,"[4]; 1 mM, 10-1-10 waveform",2.2 × and 2.19 ×
same,"reduction of electric field threshold, 5 mM NaCl to 5 mM CaCl2",[4]; 1-1-1 waveform,1.46 ×
same,"reduction of electric field threshold, 5 mM NaCl to 5 mM CaCl2",[4]; 2-1-2 waveform,1.77 × and 1.91 ×
same,"reduction of electric field threshold, 5 mM NaCl to 5 mM CaCl2",[4]; 5-1-5 waveform,2.49 × and 2.43 ×
same,"reduction of electric field threshold, 5 mM NaCl to 5 mM CaCl2",[4]; 10-1-10 waveform,1.92 × and 1.83 ×
same,electric field threshold,"[4]; H-FIRE 10-1-10 waveform with calcium, concentration not given",784±107 V/cm
same,electric field threshold,"[4]; H-FIRE 10-1-10 waveform, 1 mM",771±129 V/cm
same,electric field threshold,[4]; IRE treatment,467±67 V/cm
same,Conductivity,[5]; 1 mM solution,0.075 ± 0.004 S/m
same,Osmolarity,[5]; 1 mM solution,289 mOsm/L
same,Conductivity,[5]; 5 mM solution,0.131 S/m
same,Osmolarity,[5]; 5 mM solution,300 mOsm/L
same,increase of ablation area compared to NaCl control,[6]; 1-1-1 waveform,~2.3 ×
same,increase of ablation area compared to NaCl control,[6]; 2-1-2 waveform,4.4 ×
same,increase of ablation area compared to NaCl control,[6]; 5-1-5 waveform,6.1 ×
same,increase of ablation area compared to NaCl control,[6]; 10-1-10 waveform,3.42 ×
same,increase in ablation area compared to NaCl control,"[6]; 5 mM, 1-1-1 waveform",3.4 ×
same,increase in ablation area compared to NaCl control,"[6]; 5 mM, 2-1-2 waveform",4.37 ×
same,increase in ablation area compared to NaCl control,"[6]; 5 mM, 5-1-5 waveform",5.24 ×
same,increase in ablation area compared to NaCl control,"[6]; 5 mM, 10-1-10 waveform",2.66 ×
same,lesion size compared with an IRE treatment without calcium,"[6]; 5 mM, same applied energy, 2, 5 and 10 μs pulse widths",comparable in size or larger
same,"ablation (lesion) sizes, calcium groups versus NaCl groups","[6]; H-FIRE, all pulse patterns",statistically significantly larger
same,5 mM CaCl2 areas versus 1 mM CaCl2 areas,"[6]; after 24 h, shorter pulse durations",larger
